Experimental data from patent US7265152B2 (ViroPharma Incorporated, priority 2002, dated 2007).

Columns and labels:
[1] = test system: HCV replicon (BB7 sequence) in Huh-7-Clone A cells; experiment: HCV replicon assay: ELISA of NS5A protein in replicon-containing cells (Inhibition of Viral RNA Replication); format: cell-based; conditions: Hepatitis C virus; HCV replicon, range of EC50; read-out: Replicon
In short: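 EC50 taken from an 8-point serially diluted dose curve, with NS5A level as read-out: fixed cells probed with primary monoclonal and HRP-conjugated secondary, TMB developed 30 min, OD 650 nm. Compound exposure 72 h in Huh-7-Clone A replicon cells (BB7 sequence).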

HCV NS5B = target: T1, HCV NS5B (Hepatitis C virus genotype 1b, UniProt Q9WMX2); experiment: Inhibition of viral RNA-dependent RNA polymerase (RdRp), in vitro biochemical assay; design: species or system HCV genotype 1b virus (BB7); conditions: HCV NS5B RdRp, BB7; reported as range class; read-out: HCV pol-BB7 IC50
T1 construct: fusion protein, of which the carboxyl terminal 21 amino acids were removed to enhance its solubility; His tag (GSHHHHHH); made in house; host or cells: E. coli
In short: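 IC50 values are the concentrations that halve in vitro RNA synthesis by HCV NS5B polymerase. The enzyme was a C-terminally truncated (Δ21), His-tagged genotype 1b (BB7 consensus) protein purified from E. coli.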

| SMILES | EC50 [1] | IC50 (HCV NS5B) |
| --- | --- | --- |
| CNC(=O)c1c(-c2ccc(F)cc2)oc2cc(N3CCSCC3)c(OC(C)C)cc12 [Example 186, 2-(4-Fluoro-phenyl)-5-isopropoxy-6-thiomorpholin-4-yl-benzofuran-3-carboxylic acid methylamide] | < 1000 nM | ≤ 500 nM |
| CNC(=O)c1c(-c2ccc(F)cc2)oc2cc(C(=O)O)c(OC(C)C)cc12 [Example 187, 2-(4-Fluoro-phenyl)-5-isopropoxy-3-methylcarbamoyl-benzofuran-6-carboxylic acid] | < 10000 nM | 5000 to 30000 nM |
| CNC(=O)c1c(-c2ccc(F)cc2)oc2cc(N3CC[S+]([O-])CC3)c(OC(C)C)cc12 [Example 188, 2-(4-Fluoro-phenyl)-5-isopropoxy-6-(1-oxo-thiomorpholin-4-yl)-benzofuran-3-carboxylic acid methylamide] | < 10000 nM | 5000 to 30000 nM |
| CNC(=O)c1c(-c2ccc(F)cc2)oc2cc(N(CC(=O)O)S(C)(=O)=O)c(OC(C)C)cc12 [Example 189, {[2-(4-Fluoro-phenyl)-5-isopropoxy-3-methylcarbamoyl-benzofuran-6-yl]-methanesulfonyl-amino}-acetic acid] | < 1000 nM | 500 to 5000 nM |
| CNC(=O)c1c(-c2ccc(F)cc2)oc2cc(N(C3CCC3)S(C)(=O)=O)c(OC(C)C)cc12 [Example 190, 6-(Cyclobutyl-methanesulfonyl-amino)-2-(4-fluoro-phenyl)-5-isopropoxy-benzofuran-3-carboxylic acid methylamide] | < 1000 nM | ≤ 500 nM |
| CNC(=O)c1c(-c2ccc(F)cc2)oc2cc(N(CCN3CCOCC3)S(C)(=O)=O)c(OC(C)C)cc12 [Example 191, 2-(4-Fluoro-phenyl)-5-isopropoxy-6-[methanesulfonyl-(2-morpholin-4-yl-ethyl)-amino]-benzofuran-3-carboxylic acid methylamide] | < 1000 nM | ≤ 500 nM |
| CNC(=O)c1c(-c2ccc(F)cc2)oc2cc(O)c(O)cc12 [Example 192, 2-(4-Fluoro-phenyl)-5,6-dihydroxy-benzofuran-3-carboxylic acid methylamide] | > 30000 nM | 5000 to 30000 nM |
| CNC(=O)c1c(-c2ccc(F)cc2)oc2cc(N(CCOC)S(C)(=O)=O)c(OC(C)C)cc12 [Example 193, 2-(4-Fluoro-phenyl)-5-isopropoxy-6-[methanesulfonyl-(2-methoxy-ethyl)-amino]-benzofuran-3-carboxylic acid methylamide] | < 1000 nM | ≤ 500 nM |
| C=CCN(c1cc2oc(-c3ccc(F)cc3)c(C(=O)NC)c2cc1OC(C)C)S(C)(=O)=O [Example 195, 6-(Allyl-methanesulfonyl-amino)-2-(4-fluoro-phenyl)-5-isopropoxy-benzofuran-3-carboxylic acid methylamide] | < 1000 nM | ≤ 500 nM |
| CNC(=O)c1c(-c2ccc(F)cc2)oc2cc(C(C)=O)c(OC(C)C)cc12 [Example 196, 6-Acetyl-2-(4-fluoro-phenyl)-5-isopropoxy-benzofuran-3-carboxylic acid methyladime] | < 1000 nM | ≤ 500 nM |
| CC(C)NC(=O)c1c(-c2ccc(F)cc2)oc2cc(NS(C)(=O)=O)c(OC(C)C)cc12 [Example 197, 2-(4-Fluoro-phenyl)-5-isopropoxy-6-methanesulfonylamino-benzofuran-3-carboxylic acid isopropylamide] | < 10000 nM | 5000 to 30000 nM |
| CNC(=O)c1c(-c2ccc(F)cc2)oc2cc(-c3noc(C)n3)c(OC(C)C)cc12 [Example 198, 2-(4-Fluoro-phenyl)-5-isopropoxy-6-(5-methyl-[1,2,4]oxadiazol-3-yl)-benzofuran-3-carboxylic acid methylamide] | < 1000 nM | ≤ 500 nM |
| CC(C)Oc1cc2c(C(=O)NC3CC3)c(-c3ccc(F)cc3)oc2cc1NS(C)(=O)=O [Example 199, 2-(4-Fluoro-phenyl)-5-isopropoxy-6-methanesulfonylamino-benzofuran-3-carboxylic acid cyclopropylamide] | < 1000 nM | ≤ 500 nM |
| CCNC(=O)c1c(-c2ccc(F)cc2)oc2cc(NS(C)(=O)=O)c(OC(C)C)cc12 [Example 200, 2-(4-Fluoro-phenyl)-5-isopropoxy-6-methanesulfonylamino-benzofuran-3-carboxylic acid ethylamide] | < 1000 nM | ≤ 500 nM |
| CNC(=O)c1c(-c2ccc(F)cc2)oc2cc(N3CCOCC3)c(OCc3csc(C)n3)cc12 [Example 201, 2-(4-Fluoro-phenyl)-5-(2-methyl-thiazol-4-ylmethoxy)-6-morpholin-4-yl-benzofuran-3-carboxylic acid methylamide] | < 1000 nM | ≤ 500 nM |
| CNC(=O)c1c(-c2ccc(F)cc2)oc2cc(C(C)(C)O)c(OC(C)C)cc12 [Example 202, 2-(4-Fluoro-phenyl)-6-(1-hydroxy-1-methyl-ethyl)-5-isopropoxy-benzofuran-3-carboxylic acid methylamide] | < 1000 nM | ≤ 500 nM |
| CNC(=O)c1c(-c2ccc(F)cc2)oc2cc(N3CCOCC3)c(OCc3noc(-c4c(C)noc4C)n3)cc12 [Example 203, 5-[5-(3,5-Dimethyl-isoxazol-4-yl)-[1,2,4]oxadiazol-3-ylmethoxy]-2-(4-fluoro-phenyl)-6-morpholin-4-yl-benzofuran-3-carboxylic acid methylamide] | < 10000 nM | 500 to 5000 nM |
| CNC(=O)c1c(-c2ccc(F)cc2)oc2cc(N3CCOCC3)c(OCc3noc(C(C)(C)C)n3)cc12 [Example 204, 5-(5-tert-Butyl-[1,2,4]oxadiazol-3-ylmethoxy)-2-(4-fluoro-phenyl)-6-morpholin-4-yl-benzofuran-3-carboxylic acid methylamide] | < 1000 nM | ≤ 500 nM |
| CNC(=O)c1c(-c2ccc(F)cc2)oc2cc(-c3ncon3)c(OC(C)C)cc12 [Example 205, 2-(4-Fluoro-phenyl)-5-isopropoxy-6-[1,2,4]oxadiazol-3-yl-benzofuran-3-carboxylic acid methylamide] | < 1000 nM | ≤ 500 nM |
| CNC(=O)c1c(-c2ccc(F)cc2)oc2cc(N3CCOCC3)c(OCc3nsc(Cl)n3)cc12 [Example 206, 5-(5-Chloro-[1,2,4]thiadiazol-3-ylmethoxy)-2-(4-fluoro-phenyl)-6-morpholin-4-yl-benzofuran-3-carboxylic acid methylamide] | < 1000 nM | 500 to 5000 nM |
| CNC(=O)c1c(-c2ccc(F)cc2)oc2cc(N3CCOCC3)c(OCc3nnc(-c4ccc(C)cc4)o3)cc12 [Example 207, 2-(4-Fluoro-phenyl)-6-morpholin-4-yl-5-(5-p-tolyl-[1,3,4]oxadiazol-2-ylmethoxy)-benzofuran-3-carboxylic acid methylamide] | < 10000 nM | 5000 to 30000 nM |
| CNC(=O)c1c(-c2ccc(F)cc2)oc2cc(O)c(OC)cc12 [Example 208, 2-(4-Fluoro-phenyl)-6-hydroxy-5-methoxy-benzofuran-3-carboxylic acid methylamide] | < 30000 nM | 500 to 5000 nM |
| CNC(=O)c1c(-c2ccc(F)cc2)oc2cc(N3CCOCC3)c(OCc3nnnn3C)cc12 [Example 209, 2-(4-Fluoro-phenyl)-5-(1-methyl-1H-tetrazol-5-ylmethoxy)-6-morpholin-4-yl-benzofuran-3-carboxylic acid methylamide] | < 10000 nM | 500 to 5000 nM |
| CNC(=O)c1c(-c2ccc(F)cc2)oc2cc(N3CCOCC3)c(OCc3cccc(OC)c3)cc12 [Example 210, 2-(4-Fluoro-phenyl)-5-(3-methoxy-benzyloxy)-6-morpholin-4-yl-benzofuran-3-carboxylic acid methylamide] | < 1000 nM | ≤ 500 nM |
| CNC(=O)c1c(-c2ccc(F)cc2)oc2cc(OCc3nnnn3C)c(OC)cc12 [Example 211, 2-(4-Fluoro-phenyl)-5-methoxy-6-(1-methyl-1H-tetrazol-5-ylmethoxy)-benzofuran-3-carboxylic acid methylamide] | < 1000 nM | ≤ 500 nM |
| CNC(=O)c1c(-c2ccc(F)cc2)oc2cc(N3CCOCC3)c(OC(C)c3ccc(F)cc3)cc12 (stereo not drawn) [Example 212, 2-(4-Fluoro-phenyl)-5-[1-(4-fluoro-phenyl)-ethoxy]-6-morpholin-4-yl-benzofuran-3-carboxylic acid methylamide] | < 1000 nM | ≤ 500 nM |
| CNC(=O)c1c(-c2ccc(F)cc2)oc2cc(N3CCOCC3)c(OCc3ccc(C#N)cc3)cc12 [Example 213, 5-(4-Cyano-benzyloxy)-2-(4-fluoro-phenyl)-6-morpholin-4-yl-benzofuran-3-carboxylic acid methylamide] | < 10000 nM | 500 to 5000 nM |
| CNC(=O)c1c(-c2ccc(F)cc2)oc2cc(N3CCOCC3)c(OCc3noc(-c4ccc(OC)cc4)n3)cc12 [Example 214, 2-(4-Fluoro-phenyl)-5-[5-(4-methoxy-phenyl)-[1,2,4]oxadiazol-3-ylmethoxy]-6-morpholin-4-yl-benzofuran-3-carboxylic acid methylamide] | < 1000 nM | 500 to 5000 nM |
| CNC(=O)c1c(-c2ccc(F)cc2)oc2cc(N3CCOCC3)c(OCC(C)=O)cc12 [Example 215, 2-(4-Fluoro-phenyl)-6-morpholin-4-yl-5-(2-oxo-propoxy)-benzofuran-3-carboxylic acid methylamide] | < 10000 nM | 500 to 5000 nM |
| CNC(=O)c1c(-c2ccc(F)cc2)oc2cc(N3CCOCC3)c(OCc3nccn3Cc3ccccc3)cc12 [Example 216, 5-(1-Benzyl-1H-imidazol-2-ylmethoxy)-2-(4-fluoro-phenyl)-6-morpholin-4-yl-benzofuran-3-carboxylic acid methylamide] | < 1000 nM | ≤ 500 nM |
